Experimental data taken from patent publication US20230024302A1, “2,3,5-TRISUBSTITUTED PYRAZOLO[1,5-A]PYRIMIDINE COMPOUNDS” (Arcus Biosciences, Inc., priority 2019, published 2023).
pIC50: −log10 of the molar value.

Assays:
PI3Kγ = biological target: T1, PI3Kγ (Homo sapiens, UniProt P48736); test: PI3Kγ cellular assay in THP-1 cells (AKT pS473 AlphaLISA); format: cell-based; conditions: Table 1, rhMCP-1 stimulated AKT pS473, read-out: cellular potency (PI3Kγ IC50)
T1 construct: host or cells: THP-1
T1 sequence (P48736 whole entry): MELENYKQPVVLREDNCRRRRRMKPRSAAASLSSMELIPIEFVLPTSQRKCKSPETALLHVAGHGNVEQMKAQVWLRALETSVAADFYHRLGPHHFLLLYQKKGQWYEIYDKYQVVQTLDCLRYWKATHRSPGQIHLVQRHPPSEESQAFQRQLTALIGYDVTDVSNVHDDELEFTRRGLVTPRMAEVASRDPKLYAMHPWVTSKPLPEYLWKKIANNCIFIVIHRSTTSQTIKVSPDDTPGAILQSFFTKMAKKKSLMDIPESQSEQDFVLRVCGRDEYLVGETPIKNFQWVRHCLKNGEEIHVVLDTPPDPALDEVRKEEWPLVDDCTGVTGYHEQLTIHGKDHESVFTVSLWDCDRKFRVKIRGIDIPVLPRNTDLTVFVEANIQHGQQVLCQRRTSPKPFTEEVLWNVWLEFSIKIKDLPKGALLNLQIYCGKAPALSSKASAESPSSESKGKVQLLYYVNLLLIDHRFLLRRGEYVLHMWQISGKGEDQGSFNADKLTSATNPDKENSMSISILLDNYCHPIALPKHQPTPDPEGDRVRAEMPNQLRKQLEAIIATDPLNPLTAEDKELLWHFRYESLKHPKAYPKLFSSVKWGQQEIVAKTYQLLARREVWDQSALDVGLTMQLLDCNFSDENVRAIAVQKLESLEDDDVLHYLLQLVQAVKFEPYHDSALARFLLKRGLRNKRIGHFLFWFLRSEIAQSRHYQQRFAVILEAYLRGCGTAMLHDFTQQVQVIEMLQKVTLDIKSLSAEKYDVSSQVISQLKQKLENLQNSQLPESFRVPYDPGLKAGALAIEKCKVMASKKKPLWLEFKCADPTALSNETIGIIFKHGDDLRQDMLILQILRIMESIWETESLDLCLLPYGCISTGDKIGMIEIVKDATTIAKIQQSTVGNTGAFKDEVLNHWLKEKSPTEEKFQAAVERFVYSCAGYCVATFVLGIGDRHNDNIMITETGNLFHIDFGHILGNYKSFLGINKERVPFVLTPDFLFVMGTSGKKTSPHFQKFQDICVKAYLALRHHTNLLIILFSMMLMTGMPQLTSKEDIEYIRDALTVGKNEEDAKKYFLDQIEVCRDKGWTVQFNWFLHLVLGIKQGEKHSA
In short: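 Serum-starved THP-1 cells (1.8×10^5/well, serum-free DMEM) treated with compounds from 4 nM to 30 μM in 2% DMSO, then stimulated and lysed.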

PI3Kγ (p120γ) = biological target: T2, PI3Kγ (p120γ) (Homo sapiens, UniProt P48736); test: Inhibition of PI3K kinase activity (ADP Glo), PI3Kγ; conditions: Table 1, p120γ, read-out: biochemical potency (PI3Kγ IC50)
T2 construct: purchased Promega V1761
T2 sequence (P48736 whole entry): as above
In short: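 Recombinant p120γ (8 nM, 2× stock) was preincubated with compound for 1 h at rt in HEPES pH 7.4, NaCl, MgCl2 and 0.05% BSA. Reaction was started with PIP2 (0.1 mg/ml, 2×) and ATP (50 μM, 2×) and ran 60 min at rt. ADP formed was read by ADP-Glo luminescence, and IC50 came from a 4-parameter fit.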

| Compound | pIC50 (PI3Kγ) | pIC50 (PI3Kγ (p120γ)) |
| --- | --- | --- |
| C[C@H](CCO)NC(=O)c1c(N)nn2ccc(-c3cc4c(c(C(F)(F)F)c3)C(=O)N([C@@H](C)C3CC3)C4)nc12 [Example 57, 5-(3-{[(R)-3-Hydroxy-1-methylpropylamino]carbonyl}-2-amino-1,4,7a-triaza-5-indenyl)-2-[(S)-1-cyclopropylethyl]-7-(trifluoromethyl)-1-isoindolinone] | > 7.00 | > 7.00 |
| C[C@@H](C1CC1)N1Cc2cc(-c3ccn4nc(N)c(C(=O)NCCCCO)c4n3)cc(C(F)(F)F)c2C1=O [Example 58, 2-[(S)-1-Cyclopropylethyl]-5-{2-amino-3-[(4-hydroxybutylamino)carbonyl]-1,4,7a-triaza-5-indenyl}-7-(trifluoromethyl)-1-isoindolinone] | > 7.00 | > 7.00 |
| C[C@@H](C1CC1)N1Cc2cc(-c3ccn4nc(N)c(C(=O)NCCC(C)(C)O)c4n3)cc(C(F)(F)F)c2C1=O [Example 59, 2-[(S)-1-Cyclopropylethyl]-5-{2-amino-3-[(3-hydroxy-3-methylbutylamino)carbonyl]-1,4,7a-triaza-5-indenyl}-7-(trifluoromethyl)-1-isoindolinone] | > 7.00 | > 7.00 |
| C[C@@H](C1CC1)N1Cc2cc(-c3ccn4nc(N)c(C(=O)N[C@H]5CC[C@H](CO)CC5)c4n3)cc(C(F)(F)F)c2C1=O [Example 60, 2-Amino-5-(2-((S)-1-cyclopropylethyl)-1-oxo-7-(trifluoromethyl)isoindolin-5-yl)-N-(trans-4-(hydroxymethyl)cyclohexyl)pyrazolo[1,5-a]pyrimidine-3-carboxamide] | > 7.00 | > 7.00 |
| C[C@@H](C1CC1)N1Cc2cc(-c3ccn4nc(N)c(C(=O)N[C@H]5CC[C@H](C(C)(C)O)CC5)c4n3)cc(C(F)(F)F)c2C1=O [Example 61, 2-Amino-5-(2-((S)-1-cyclopropylethyl)-1-oxo-7-(trifluoromethyl)isoindolin-5-yl)-N-(trans-4-(2-hydroxypropan-2-yl)cyclohexyl)pyrazolo[1,5-a]pyrimidine-3-carboxamide] | > 7.00 | > 7.00 |
| C[C@@H](C1CC1)N1Cc2cc(-c3ccn4nc(N)c(C(=O)N[C@H]5CC[C@H](C6(O)CC6)CC5)c4n3)cc(C(F)(F)F)c2C1=O [Example 62, 2-Amino-5-(2-((S)-1-cyclopropylethyl)-1-oxo-7-(trifluoromethyl)isoindolin-5-yl)-N-(trans-4-(1-hydroxycyclopropyl)cyclohexyl)pyrazolo[1,5-a]pyrimidine-3-carboxamide] | > 7.00 | > 7.00 |
| C[C@@H](C1CC1)N1Cc2cc(-c3ccn4nc(N)c(C(=O)N[C@H]5CCC[C@@H](O)C5)c4n3)cc(C(F)(F)F)c2C1=O [Example 63, 2-Amino-5-{2-[(1S)-1-cyclopropylethyl]-1-oxo-7-(trifluoromethyl)-2,3-dihydro-1H-isoindol-5-yl}-N-[(1S,3R)-3-hydroxycyclohexyl]pyrazolo[1,5-a]pyrimidine-3-carboxamide] | > 7.00 | > 7.00 |
| C[C@@H](C1CC1)N1Cc2cc(-c3ccn4nc(N)c(C(=O)N[C@H]5CNC(=O)C5)c4n3)cc(C(F)(F)F)c2C1=O [Example 64, 2-Amino-5-{2-[(1S)-1-cyclopropylethyl]-1-oxo-7-(trifluoromethyl)-2,3-dihydro-1H-isoindol-5-yl}-N-[(3R)-5-oxopyrrolidin-3-yl]pyrazolo[1,5-a]pyrimidine-3-carboxamide] | > 7.00 | > 7.00 |
| C[C@@H](C1CC1)N1Cc2cc(-c3ccn4nc(N)c(C(=O)N[C@H]5C[C@H](O)C5)c4n3)cc(C(F)(F)F)c2C1=O [Example 65, 2-Amino-5-{2-[(1S)-1-cyclopropylethyl]-1-oxo-7-(trifluoromethyl)-2,3-dihydro-1H-isoindol-5-yl}-N-[trans-3-hydroxycyclobutyl]pyrazolo[1,5-a]pyrimidine-3-carboxamide] | > 7.00 | > 7.00 |
| C[C@@H](C1CC1)N1Cc2cc(-c3ccn4nc(N)c(C(N)=O)c4n3)cc(C(F)(F)F)c2C1=O [Example 66] | 6.00 to 7.00 | > 7.00 |
| CNC(=O)c1c(N)nn2ccc(-c3cc4c(c(C(F)(F)F)c3)C(=O)N([C@@H](C)C3CC3)C4)nc12 [Example 67, 2-[(S)-1-Cyclopropylethyl]-5-[2-amino-3-(methylamino)carbonyl-1,4,7a-triaza-5-indenyl]-7-(trifluoromethyl)-1-isoindolinone] | > 7.00 | > 7.00 |
| CCNC(=O)c1c(N)nn2ccc(-c3cc4c(c(C(F)(F)F)c3)C(=O)N([C@@H](C)C3CC3)C4)nc12 [Example 68, 2-[(S)-1-Cyclopropylethyl]-5-[2-amino-3-(ethylamino)carbonyl-1,4,7a-triaza-5-indenyl]-7-(trifluoromethyl)-1-isoindolinone] | > 7.00 | > 7.00 |
| C[C@@H](C1CC1)N1Cc2cc(-c3ccn4nc(N)c(C(=O)Nc5ccncc5)c4n3)cc(C(F)(F)F)c2C1=O [Example 69, (S)-2-Amino-5-(2-(1-cyclopropylethyl)-1-oxo-7-(trifluoromethyl)isoindolin-5-yl)-N-(pyridin-4-yl)pyrazolo[1,5-a]pyrimidine-3-carboxamide] | > 7.00 | > 7.00 |
| C[C@@H](C1CC1)N1Cc2cc(-c3ccn4nc(N)c(C(=O)Nc5cccnc5)c4n3)cc(C(F)(F)F)c2C1=O [Example 70, (S)-2-Amino-5-(2-(1-cyclopropylethyl)-1-oxo-7-(trifluoromethyl)isoindolin-5-yl)-N-(pyridin-3-yl)pyrazolo[1,5-a]pyrimidine-3-carboxamide] | > 7.00 | > 7.00 |
| C[C@@H](C1CC1)N1Cc2cc3cc(c2C1=O)OCCOCCNC(=O)c1c(N)nn2ccc-3nc12 [Example 71, 6-[(S)-1-Cyclopropylethyl]-19-amino-10.13-dioxa-6.16.20.21.24-pentaazapentacyclo[16.5.2.12,9.04,8.021,25]hexacosa-1(24),2,4(8),9(26),18(25),19,22-heptaene-7,17-dione] | > 7.00 | > 7.00 |
| C[C@@H](C1CC1)N1Cc2cc(-c3ccn4nc(N)c(C(=O)N[C@@H]5CCC[C@H]5O)c4n3)cc(NS(C)(=O)=O)c2C1=O [Example 72, 2-Amino-5-{2-[(1S)-1-cyclopropylethyl]-7-methanesulfonamido-1-oxo-2,3-dihydro-1H-isoindol-5-yl}-N-[(1R,2R)-2-hydroxycyclopentyl]pyrazolo[1,5-a]pyrimidine-3-carboxamide] | > 7.00 | > 7.00 |
| CNC(=O)c1c(N)nn2ccc(-c3cc4c(c(NS(C)(=O)=O)c3)C(=O)N([C@@H](C)C3CC3)C4)nc12 [Example 73, 2-Amino-5-{2-[(1S)-1-cyclopropylethyl]-7-methanesulfonamido-1-oxo-2,3-dihydro-1H-isoindol-5-yl}-N-methylpyrazolo[1,5-a]pyrimidine-3-carboxamide] | > 7.00 | > 7.00 |
| CCNC(=O)c1c(N)nn2ccc(-c3cc4c(c(NS(C)(=O)=O)c3)C(=O)N([C@@H](C)C3CC3)C4)nc12 [Example 74, 2-Amino-5-{2-[(1S)-1-cyclopropylethyl]-7-methanesulfonamido-1-oxo-2,3-dihydro-1H-isoindol-5-yl}-N-ethylpyrazolo[1,5-a]pyrimidine-3-carboxamide] | > 7.00 | > 7.00 |
| CC(C)NC(=O)c1c(N)nn2ccc(-c3cc4c(c(NS(C)(=O)=O)c3)C(=O)N([C@@H](C)C3CC3)C4)nc12 [Example 75, 2-Amino-5-{2-[(1S)-1-cyclopropylethyl]-7-methanesulfonamido-1-oxo-2,3-dihydro-1H-isoindol-5-yl}-N-(propan-2-yl)pyrazolo[1,5-a]pyrimidine-3-carboxamide] | > 7.00 | > 7.00 |
| C[C@@H](C1CC1)N1Cc2cc(-c3ccn4nc(N)c(C(N)=O)c4n3)cc(NS(C)(=O)=O)c2C1=O [Example 76, 5-{2-[(S)-1-Cyclopropylethyl]-7-(methylsulfonylamino)-5-isoindolinoyl}-2-amino-1,4,7a-triaza-3-indenecarboxamide] | 6.00 to 7.00 | > 7.00 |
| C[C@@H](C1CC1)N1Cc2cc(-c3ccn4nc(N)c(C(=O)NC5CC56CC6)c4n3)cc(NS(C)(=O)=O)c2C1=O (stereo partly drawn) [Example 77, 2-[(S)-1-Cyclopropylethyl]-5-(2-amino-3-{(1-spiro[2.2]pentylamino)carbonyl}-1,4,7a-triaza-5-indenyl)-7-(methylsulfonylamino)-1-isoindolinone] | > 7.00 | > 7.00 |
| C[C@@H](C1CC1)N1Cc2cc(-c3ccn4nc(N)c(C(=O)NC5COC5)c4n3)cc(NS(C)(=O)=O)c2C1=O [Example 78, 2-Amino-5-{2-[(1S)-1-cyclopropylethyl]-7-methanesulfonamido-1-oxo-2,3-dihydro-1H-isoindol-5-yl}-N-(oxetan-3-yl)pyrazolo[1,5-a]pyrimidine-3-carboxamide] | > 7.00 | > 7.00 |
| C[C@@H](C1CC1)N1Cc2cc(-c3ccn4nc(N)c(C(=O)NC5(C)COC5)c4n3)cc(NS(C)(=O)=O)c2C1=O [Example 79, 2-Amino-5-{2-[(1S)-1-cyclopropylethyl]-7-methanesulfonamido-1-oxo-2,3-dihydro-1H-isoindol-5-yl}-N-(3-methyloxetan-3-yl)pyrazolo[1,5-a]pyrimidine-3-carboxamide] | > 7.00 | > 7.00 |
| C[C@@H](C1CC1)N1Cc2cc(-c3ccn4nc(N)c(C(=O)NC5(C#N)COC5)c4n3)cc(NS(C)(=O)=O)c2C1=O [Example 80, 2-Amino-N-(3-cyanooxetan-3-yl)-5-{2-[(1S)-1-cyclopropylethyl]-7-methanesulfonamido-1-oxo-2,3-dihydro-1H-isoindol-5-yl}pyrazolo[1,5-a]pyrimidine-3-carboxamide] | > 7.00 | > 7.00 |
